# Counter-ions that a name gives are not always drawn.
# Experiments:
# [1] = biological target: T1, DNA topoisomerase 1 (Homo sapiens) (UniProt P11387); experiment: (§1) Inhibition of recombinant human DNA topoisomerase 1 expressed in baculovirus expression system assessed as decrease in relaxation of supercoiled pBR322 plasmid DNA at 20 uM using supercoiled pBR322 plasmid DNA as substrate incubated for 30 mins by ethidium bromide staining-based UV imaging analysis relative to control
# T1 sequence (whole entry): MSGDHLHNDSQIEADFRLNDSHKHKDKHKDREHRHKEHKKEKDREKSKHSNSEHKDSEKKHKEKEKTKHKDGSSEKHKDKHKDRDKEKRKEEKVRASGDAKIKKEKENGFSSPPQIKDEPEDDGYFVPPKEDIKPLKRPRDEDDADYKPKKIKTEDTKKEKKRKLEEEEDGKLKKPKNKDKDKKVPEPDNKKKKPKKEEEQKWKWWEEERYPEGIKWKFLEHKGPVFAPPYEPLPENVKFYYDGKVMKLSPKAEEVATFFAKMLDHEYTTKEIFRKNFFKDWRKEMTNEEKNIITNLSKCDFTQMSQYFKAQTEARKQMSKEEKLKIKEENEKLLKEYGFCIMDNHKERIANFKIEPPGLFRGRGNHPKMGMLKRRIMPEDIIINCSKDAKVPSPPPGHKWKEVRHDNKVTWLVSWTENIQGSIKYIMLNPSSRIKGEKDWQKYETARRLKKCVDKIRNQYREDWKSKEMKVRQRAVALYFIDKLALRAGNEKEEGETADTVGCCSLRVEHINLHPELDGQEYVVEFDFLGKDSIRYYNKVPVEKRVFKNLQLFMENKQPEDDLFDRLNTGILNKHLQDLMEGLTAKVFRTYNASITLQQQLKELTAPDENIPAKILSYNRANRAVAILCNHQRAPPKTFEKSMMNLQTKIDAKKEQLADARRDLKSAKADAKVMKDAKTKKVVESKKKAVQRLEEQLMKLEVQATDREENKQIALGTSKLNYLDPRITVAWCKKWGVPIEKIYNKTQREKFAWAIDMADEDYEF
# MDA-MB-468 = experiment: Cytotoxicity against human MDA-MB-468 cells assessed as cell growth inhibition measured after 2 days by cell counting kit-8 assay; type: functional, cell-based; conditions: MDA-MB-468, 48 h
# [2] = biological target: T1, DNA topoisomerase 1 (Homo sapiens); experiment: as §1, with “100” for “20”
# MDA-MB-231 = experiment: Cytotoxicity against human MDA-MB-231 cells assessed as cell growth inhibition measured after 2 days by cell counting kit-8 assay; type: functional, cell-based; conditions: MDA-MB-231, 48 h
# [3] = biological target: DNA topoisomerase 2-alpha (Homo sapiens) (UniProt P11388); experiment: Inhibition of human DNA topoisomerase 2alpha assessed as decrease in relaxation of supercoiled pBR322 plasmid DNA at 100 uM using supercoiled pBR322 plasmid DNA as substrate incubated for 30 mins in presence of ATP by ethidium bromide staining-based UV imaging analysis relative to control
# DNA topoisomerase 2-alpha (Homo sapiens), sequence (P11388 whole entry): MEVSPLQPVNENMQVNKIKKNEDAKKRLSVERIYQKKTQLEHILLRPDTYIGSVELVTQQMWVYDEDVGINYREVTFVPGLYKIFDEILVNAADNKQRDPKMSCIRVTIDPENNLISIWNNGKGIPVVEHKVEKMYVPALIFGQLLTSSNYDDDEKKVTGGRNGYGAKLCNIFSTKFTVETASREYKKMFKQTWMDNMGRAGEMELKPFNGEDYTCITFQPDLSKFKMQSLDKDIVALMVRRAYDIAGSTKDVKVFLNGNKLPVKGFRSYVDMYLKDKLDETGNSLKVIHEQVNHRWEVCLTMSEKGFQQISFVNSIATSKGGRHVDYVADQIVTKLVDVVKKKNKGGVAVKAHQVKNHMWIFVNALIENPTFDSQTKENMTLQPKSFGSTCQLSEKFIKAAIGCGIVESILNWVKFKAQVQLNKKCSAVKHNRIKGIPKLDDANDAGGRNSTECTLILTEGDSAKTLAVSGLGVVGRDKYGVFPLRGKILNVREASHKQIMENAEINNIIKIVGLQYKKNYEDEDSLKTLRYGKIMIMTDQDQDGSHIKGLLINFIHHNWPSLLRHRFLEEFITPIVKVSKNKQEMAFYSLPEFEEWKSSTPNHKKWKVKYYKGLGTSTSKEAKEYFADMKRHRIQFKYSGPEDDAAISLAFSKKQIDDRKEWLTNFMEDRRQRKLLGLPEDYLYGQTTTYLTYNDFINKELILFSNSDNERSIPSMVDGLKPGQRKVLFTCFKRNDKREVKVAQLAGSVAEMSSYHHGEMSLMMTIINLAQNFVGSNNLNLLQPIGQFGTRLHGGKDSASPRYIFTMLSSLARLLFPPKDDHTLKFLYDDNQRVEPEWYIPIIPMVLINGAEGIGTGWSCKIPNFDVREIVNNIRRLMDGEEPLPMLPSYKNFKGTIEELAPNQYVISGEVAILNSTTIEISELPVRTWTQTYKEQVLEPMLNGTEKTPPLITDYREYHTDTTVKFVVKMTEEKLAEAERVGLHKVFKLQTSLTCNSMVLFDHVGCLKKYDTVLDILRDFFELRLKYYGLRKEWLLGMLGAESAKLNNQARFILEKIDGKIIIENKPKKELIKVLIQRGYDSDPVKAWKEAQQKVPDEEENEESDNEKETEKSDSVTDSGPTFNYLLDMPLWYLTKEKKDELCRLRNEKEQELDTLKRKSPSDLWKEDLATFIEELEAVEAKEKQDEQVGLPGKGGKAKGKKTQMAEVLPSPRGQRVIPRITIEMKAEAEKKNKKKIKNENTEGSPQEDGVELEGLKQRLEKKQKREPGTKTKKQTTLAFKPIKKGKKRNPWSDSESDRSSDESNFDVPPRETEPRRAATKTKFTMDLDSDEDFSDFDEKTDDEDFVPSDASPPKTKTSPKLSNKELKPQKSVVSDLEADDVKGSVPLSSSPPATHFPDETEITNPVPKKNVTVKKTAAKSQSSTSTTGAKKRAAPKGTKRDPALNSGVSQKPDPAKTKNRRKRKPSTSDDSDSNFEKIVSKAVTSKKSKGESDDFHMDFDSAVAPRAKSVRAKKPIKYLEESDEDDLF
# T47D = experiment: Cytotoxicity against human T47D cells assessed as cell growth inhibition measured after 2 days by cell counting kit-8 assay; type: functional, cell-based; conditions: 48 h
# [4] = biological target: DNA topoisomerase 2-alpha (Homo sapiens) (UniProt P11388); experiment: Inhibition of human DNA topoisomerase 2alpha assessed as decrease in relaxation of supercoiled pBR322 plasmid DNA at 20 uM using supercoiled pBR322 plasmid DNA as substrate incubated for 30 mins in presence of ATP by ethidium bromide staining-based UV imaging analysis relative to control
Compound,inhibition [1],IC50 (MDA-MB-468),inhibition [2],IC50 (MDA-MB-231),inhibition [3],IC50 (T47D),inhibition [4]
O=C(/C=C/c1ccsc1)c1ccc(OCC2CO2)cc1 (centres undefined),0%,10.8 µM,46.3%,11.1 µM,2.7%,10.6 µM,
O=C(/C=C/c1ccco1)c1ccccc1OCC1CO1 (centres undefined),24.2%,48.3 µM,36.8%,28.7 µM,82.3%,19.4 µM,0%
COc1cc([C@@H]2c3cc4c(cc3[C@@H](O[C@@H]3O[C@@H]5CO[C@@H](C)O[C@H]5[C@H](O)[C@H]3O)[C@H]3COC(=O)[C@H]23)OCO4)cc(OC)c1O [ETOPOSIDE],,0.86 µM,< 30%,9.13 µM,,1.96 µM,
O=C(/C=C/c1cccs1)c1ccccc1OCC1CS1 (centres undefined),,4.35 µM,0.4%,17.9 µM,0.4%,7.01 µM,
O=C(/C=C/c1ccoc1)c1ccc(OCC2CO2)cc1 (centres undefined),,16.5 µM,5.6%,26.2 µM,0.3%,20.6 µM,
O=C(/C=C/c1cccs1)c1cccc(OCC2CO2)c1 (centres undefined),,16.3 µM,2.7%,15.4 µM,3.9%,14.6 µM,
COc1cccc2c1C(=O)c1c(O)c3c(c(O)c1C2=O)C[C@@](O)(C(=O)CO)C[C@@H]3O[C@H]1C[C@H](N)[C@H](O)[C@H](C)O1 [DOXORUBICIN HYDROCHLORIDE],,2.15 µM,,3.6 µM,,2.18 µM,
O=C(/C=C/c1ccsc1)c1ccc(OCC2CS2)cc1 (centres undefined),0%,23.8 µM,100%,50 µM,0%,9.32 µM,
O=C(/C=C/c1ccoc1)c1ccc(OCC2CS2)cc1 (centres undefined),,5.3 µM,0%,19.3 µM,0%,12.3 µM,
O=C(/C=C/c1ccc(OCC2CS2)cc1)c1ccco1 (centres undefined),,8.35 µM,3.3%,24.1 µM,0%,10.6 µM,
O=C(/C=C/c1ccc(OCC(O)CCl)cc1)c1ccco1 (centres undefined),,9.53 µM,1.8%,> 50 µM,0%,> 50 µM,
O=C(/C=C/c1ccco1)c1cccc(OCC2CO2)c1 (centres undefined),,37.3 µM,28.5%,27.8 µM,67.6%,22.7 µM,0.3%
O=C(/C=C/c1cccs1)c1ccc(OCC2CS2)cc1 (centres undefined),,5.27 µM,14.5%,16.7 µM,0%,11.1 µM,
O=C(/C=C/c1cccs1)c1ccc(OCC2CO2)cc1 (centres undefined),,17.2 µM,0%,28.3 µM,0.6%,17.8 µM,
CC[C@@]1(O)C(=O)OCc2c1cc1n(c2=O)Cc2cc3ccccc3nc2-1 [CAMPTOTHECIN],,1.71 µM,,8.83 µM,< 30%,3.67 µM,
O=C(/C=C/c1ccco1)c1ccc(OCC2CS2)cc1 (centres undefined),0%,4.32 µM,63.8%,18 µM,94.5%,9.44 µM,24.7%
O=C(/C=C/c1cccs1)c1ccccc1OCC1CO1 (centres undefined),,7.71 µM,11.1%,17.9 µM,0.7%,17.7 µM,
O=C(/C=C/c1ccc(OCC2CO2)cc1)c1cccs1 (centres undefined),15.6%,6.3 µM,34.1%,13.9 µM,0%,10.6 µM,
O=C(/C=C/c1ccc(OCC(O)CCl)cc1)c1cccs1 (centres undefined),,7.75 µM,4.3%,30.3 µM,3.7%,13 µM,
O=C(/C=C/c1cccs1)c1cccc(OCC2CS2)c1 (centres undefined),,6.98 µM,0%,19.9 µM,3.7%,10.6 µM,
O=C(/C=C/c1ccc(OCC2CS2)cc1)c1cccs1 (centres undefined),,6.14 µM,5.1%,17.3 µM,0%,3.83 µM,
O=C(/C=C/c1ccco1)c1ccccc1OCC1CS1 (centres undefined),6.4%,8.26 µM,61.2%,32.2 µM,95.4%,6.61 µM,30.6%
O=C(/C=C/c1ccco1)c1cccc(OCC2CS2)c1 (centres undefined),1.3%,7.23 µM,75.4%,28.9 µM,90.4%,10.4 µM,29.8%
O=C(/C=C/c1ccco1)c1ccc(OCC2CO2)cc1 (centres undefined),0%,48.9 µM,36.8%,47.1 µM,6.6%,17.7 µM,
O=C(/C=C/c1ccc(OCC2CO2)cc1)c1ccco1 (centres undefined),,17.3 µM,0%,22.2 µM,0%,11.2 µM,

# Reference: ChEMBL document CHEMBL4715777, “Synthesis and topoisomerases inhibitory activity of heteroaromatic chalcones” (Bioorg Med Chem, 2016)
